# From US20040071762A1, “Diagnostic test for schizophrenia, using niacin” (Scotia Holdings PLC, priority 1996, published 2004)
# Where two headings read alike, the source gives them in different places.
# What was measured:
# [1] = system: skin; assay: Topical niacin skin patch test, redness (flushing) scored 0-3; assay type: in vivo, human; settings: for Percentage responding with absent [0] reddening of the skin / Percentage responding with marked [3] reddening of the skin / Percentage responding with mild [1] reddening of the skin / Percentage responding with moderate [2] reddening of the skin: 5 minutes
# Description: The test involves the topical application of niacin solutions, preferably in a carrier such as gauze, cotton, wax or appropriate fibre or absorbent material, to the skin of any part of the body, but conveniently the forearm or upper arm. A range of solutions may be used from 0.00001M to 1 molar. A single concentration may be chosen and used but desirably use is made of a range of steps varying from two to twenty. We have found it convenient is to use a range of four solutions of 0.1, 0.01, 0.001 and 0.0001M, e.g. 0.05 ml of each, but other concentrations within the range and other numbers of steps can be used as found appropriate, both in diagnosis and in monitoring as discussed above. […] The wells or depressions may be sealed by another plastic or other strip which isolates them from the atmosphere and which can be removed immediately prior to testing. The strip with the open wells can then be applied to the skin surface with light pressure and removed after an appropriate time which may be e.g. 0.5 minutes up to 10 or 15 minutes but preferably 3 to 6 minutes.
# Both of these effects are due to vasodilatation of the small blood vessels of the skin. The redness may be scored in relation to the adjacent unaffected skin on an appropriate scale which can be either “present” or “absent”, or can be semi-quantitative, such as mild, moderate or marked, or can be made fully quantitative by use of a spectrophotometer or other appropriate instrument e.g. a blood flow meter. The oedema can likewise be scored as present or absent or can be scored semi-quantitatively or quantitatively.
# We have also used a scoring system in which the degree of redness under each patch was scored as 0=no change, 1=mild redness, 2=moderate redness and 3=marked redness. When the test is used commercially, sample colour charts may show how the test can be used with individuals of varying skin colour. With particularly dark-skinned individuals, oedema or a measurement of skin surface temperature or heat loss may be required to give the best results.
# [2] = system: skin; settings: 100-300 mg given orally, cited from earlier work
# [3] = normal controls (n=22), topical niacin 0.000. M
# [4] = normal controls (n=22), topical niacin 0.001 M
# [5] = normal controls (n=22), topical niacin 0.01 M
# [6] = normal controls (n=22), topical niacin 0.1 M
# [7] = schizophrenics (n=38), topical niacin 0.000. M
# [8] = schizophrenics (n=38), topical niacin 0.001 M
# [9] = schizophrenics (n=38), topical niacin 0.01 M
# [10] = schizophrenics (n=38), topical niacin 0.1 M
smiles,measurement,setting,value
"O=C(O)c1cccnc1 [Niacin, nicotinic acid]",Response to topical niacin test in depressives,"[1]; depressives, expected by analogy with oral niacin",the same as for normal individuals
same,Percentage responding with absent [0] reddening of the skin,[1]; [3],35.3%
same,Percentage responding with marked [3] reddening of the skin,[1]; [3],17.6%
same,Percentage responding with mild [1] reddening of the skin,[1]; [3],29.4%
same,Percentage responding with moderate [2] reddening of the skin,[1]; [3],17.6%
same,Percentage responding with absent [0] reddening of the skin,[1]; [4],31.8%
same,Percentage responding with marked [3] reddening of the skin,[1]; [4],18.2%
same,Percentage responding with mild [1] reddening of the skin,[1]; [4],9.1%
same,Percentage responding with moderate [2] reddening of the skin,[1]; [4],40.9%
same,Percentage responding with absent [0] reddening of the skin,[1]; [5],9.1%
same,Percentage responding with marked [3] reddening of the skin,[1]; [5],31.8%
same,Percentage responding with mild [1] reddening of the skin,[1]; [5],13.6%
same,Percentage responding with moderate [2] reddening of the skin,[1]; [5],45.5%
same,Percentage responding with absent [0] reddening of the skin,[1]; [6],4.5%
same,Percentage responding with marked [3] reddening of the skin,[1]; [6],59.1%
same,Percentage responding with mild [1] reddening of the skin,[1]; [6],9.1%
same,Percentage responding with moderate [2] reddening of the skin,[1]; [6],27.3%
same,Percentage responding with absent [0] reddening of the skin,[1]; [7],88.2%
same,Percentage responding with marked [3] reddening of the skin,[1]; [7],0%
same,Percentage responding with mild [1] reddening of the skin,[1]; [7],8.8%
same,Percentage responding with moderate [2] reddening of the skin,[1]; [7],2.9%
same,Percentage responding with absent [0] reddening of the skin,[1]; [8],67.6%
same,Percentage responding with marked [3] reddening of the skin,[1]; [8],0%
same,Percentage responding with mild [1] reddening of the skin,[1]; [8],29.4%
same,Percentage responding with moderate [2] reddening of the skin,[1]; [8],2.9%
same,Percentage responding with absent [0] reddening of the skin,[1]; [9],41.2%
same,Percentage responding with marked [3] reddening of the skin,[1]; [9],0%
same,Percentage responding with mild [1] reddening of the skin,[1]; [9],41.2%
same,Percentage responding with moderate [2] reddening of the skin,[1]; [9],17.6%
same,Percentage responding with absent [0] reddening of the skin,[1]; [10],13.5%
same,Percentage responding with marked [3] reddening of the skin,[1]; [10],5.4%
same,Percentage responding with mild [1] reddening of the skin,[1]; [10],37.8%
same,Percentage responding with moderate [2] reddening of the skin,[1]; [10],43.2%
same,Flushing response to oral niacin,[2]; a substantial proportion of schizophrenics,fail to flush
same,Flushing response to oral niacin,[2]; most normal individuals,flush markedly
NC(=O)c1cccnc1 [Nicotinamide],Flushing reaction in normal individuals,"[1]; form passing the skin, suitability for the topical test",does not elicit the reaction
